Key:
Format in all cases: cell-based
[1] = tested on: IL-6 (THP-1 human monocyte cell line); assay: IL-6 inhibition in LPS-stimulated THP-1 cells (HTRF); conditions: LPS 500 ng/mL; for EC50: 22 hours, IL6 HTRF; for inhibition at 10 µM: given for EC50 >10 μM, read-out: percent inhibition at 10 μM
Experimental: Human monocyte cell line (THP-1 cells; Catalog # TIB-202, ATCC, Manassas, Va.) were cultured in Roswell Park Memorial Institute (RPMI) 1640 Medium (Catalog #21870-100, Buffalo, N.Y.) with 1% L-glutamine, 1% HEPES, 1% Sodium Pyruvate, 2% Sodium Bicarbonate supplemented with 100 units/mL penicillin, 50 μg/mL streptomycin, 2-mercaptoethanol (0.05 mM) [basal medium] and 10% fetal bovine serum (Catalog #16140089, Life Technologies, Carlsbad, Calif.) at 37° C. and 5% CO2.
THP-1 cells were cultured in basal media with 1% FBS for 24 hours before the start of the assay. Each compound was dissolved in DMSO as a 10 mM stock and used to prepare compound source plates. Serial dilution (1:3, 10-point dose-response curves starting from […]) and compound transfer was performed using the ECHO 550 (Labcyte, Sunnyvale, Calif.) into 384-well white low volume assay plates (Greiner Bio-One) with appropriate DMSO backfill for a final DMSO concentration of 0.1%. THP-1 cells were plated at 5000 cells/well in the 384-well plates and incubated at 37° C. for 2 h. 500 ng/mL of LPS was added after 2 hours and cells were incubated for another 22 hours at 37° C. Plates were spun in a centrifuge for 1 minute at 10,000 rpm and a mixture of anti-IL6 XL665, and anti-IL6 Cryptate diluted in reconstitution buffer (Cisbio Inc.) was added to each well. Following incubation for 3 hrs at room temperature, Homogeneous Time-Resolved Fluorescence (HTRF) was measured using the Envision (Perkin Elmer) at 665 nm and […]. The ratio of fluorescence at 665 nm to 620 nm was used as a readout for IL6 quantification. All samples were processed in duplicate. Readings were normalized to DMSO treated cells and normalized activities were utilized for EC50 calculations using the dose-response log (inhibitor) vs. response—variable slope (four parameters) nonlinear regression feature available in GraphPad Prism 5.0 (or Dotmatics). For EC50 of >10 μM, the percent inhibition at 10 μM is provided.

SW480 colon cancer cells = assay: Cell viability assay (CellTiter-Blue); conditions: Homo sapiens, 96 h, four days; for inhibition at 10 µM: given for EC50 >10 μM, read-out: percent inhibition at 10 μM
Experimental: Representative compounds were screened using the following assay procedure to assess the effect on cell viability as described below.
Each compound was dissolved in DMSO as a 10 mM stock and used to prepare compound source plates. Serial dilution (1:3, 8-point dose-response curves from 10 μM to 0.0045 μM) and compound transfer was performed using the ECHO 550 (Labcyte, Sunnyvale, Calif.) into 96-well clear bottom, black-walled plates (Corning-Costar).
Approximately 2×10^3 SW480 colon cancer cells were seeded into each well and allowed to incubate in the presence or absence of compound for four days at 37° C./5% CO2. Eight replicates of DMSO-treated cells served as controls and cells treated with compound were performed in duplicate.
After incubation, 20 μL of CellTiter-Blue (Promega) was added to each well allowed to incubate for approximately 3 hours. This reagent was a buffered solution which contains resazurin, metabolically active cells were able to reduce rezarurin (blue) into resorufin (pink) which was highly fluorescent. This measured fluorescence was used as a readout for cell viability.
After incubation, the plates were read at Ex 560 nm Em 590 nm (Cytation 3, BioTek). Dose-response curves were generated and EC50 concentration values were calculated using non-linear regression curve fit in the GraphPad Prism (San Diego, Calif.) or Dotmatics' Studies Software (Bishops Stortford, UK). For EC50 of >10 μM, the percent inhibition at 10 μM is provided.

[2] = tested on: primary human fibroblasts derived from IPF patients (LL29 cells); assay: Inhibition of fibrotic process, αSMA staining in TGF-β1 treated LL29 fibroblasts; conditions: Fibroblast, 96 h, TGF-β1 20 ng/mL, 4 days; for EC50: % αSMA positive cells; for inhibition at 10 µM: given for EC50 >10 μM, read-out: percent inhibition at 10 μM
From the text: Representative compounds were screened using primary human fibroblasts (derived from IPF patients) treated with TGF-β1 to determine their ability to inhibit the fibrotic process.
Primary human fibroblasts derived from IPF patients (LL29 cells) [^1Xiaoqiu Liu, et. al., “Fibrotic Lung Fibroblasts Show Blunted Inhibition by cAMP Due to Deficient cAMP Response Element-Binding Protein Phosphorylation”, Journal of Pharmacology and Experimental Therapeutics (2005), 315(2), 678-687; ^2Watts, K. L., et. al., “RhoA signaling modulates cyclin D1 expression in human lung fibroblasts; implications for idiopathic pulmonary fibrosis”, Respiratory Research (2006), 7(1), 88] were obtained from American Type Culture Collection (ATCC) and expanded in F12 medium supplemented with 15% Fetal Bovine Serum and Penicillin/Streptomycin.
Each compound was dissolved in DMSO as a 10 mM stock and used to prepare compound source plates. Serial dilution (1:2, 11-point dose-response curves from […] to […]) and compound transfer was performed using the ECHO 550 (Labcyte, Sunnyvale, Calif.) into 384-well clear bottom assay plates (Greiner Bio-One) with appropriate DMSO backfill for a final DMSO concentration of 0.1%. LL29 cells are plated at 1,500 cells/well in 80 μL/well F12 medium supplemented with 1% Fetal Bovine Serum. One hour after addition of the cells, TGF-β1 (Peprotech; 20 ng/mL) was added to the plates to induce fibrosis (ref. 1 and 2 above). Wells treated with TGF-β1 and containing DMSO were used as controls. Cells were incubated at 37° C. and 5% CO2 for 4 days. Following incubation for 4 days, SYTOX green nucleic acid stain (Life Technologies [Thermo Fisher Scientific]) was added to the wells at a final concentration of 1 μM and incubated at room temperature for 30 min. Cells were then fixed using 4% formaldehyde (Electron Microscopy Sciences), washed 3 times with PBS followed by blocking and permeabilization using 3% Bovine Serum Albumin (BSA; Sigma) and 0.3% Triton X-100 (Sigma) in PBS. Cells were then stained with antibody specific to α-smooth muscle actin (αSMA; Abcam) (ref. 1 and 2 above) in 3% Bovine Serum Albumin (BSA; Sigma) and 0.3% Triton X-100 (Sigma) in PBS, and incubated overnight at 4° C. Cells were then washed 3 times with PBS, followed by incubation with Alexa Flor-647 conjugated secondary antibody (Life Technologies [Thermo Fisher Scientific]) and DAPI at room temperature for 1 hour. Cells were then washed 3 times with PBS and plates were sealed for imaging. αSMA staining was imaged by excitation at 630 nm and emission at 665 nm and quantified using the Compartmental Analysis program on the CellInsight CX5 (Thermo Scientific). Dead or apoptotic cells were excluded from analysis based on positive SYTOX green staining. % of total cells positive for αSMA were counted in each well and normalized to the average of 11 wells treated with TGF-β1 on the same plate using Dotmatics' Studies Software. The normalized averages (fold change over untreated) of 3 replicate wells for each compound concentration were used to create dose-responses curves and EC50 values were calculated using non-linear regression curve fit in the Dotmatics' Studies Software. For EC50 of >10 μM, the percent inhibition at 10 μM is provided.

| Compound | EC50 [1] [µM] | EC50 (SW480 colon cancer cells) [µM] | inhibition at 10 µM [1] [%] | EC50 [2] [µM] | inhibition at 10 µM (SW480 colon cancer cells) [%] | inhibition at 10 µM [2] [%] |
| --- | --- | --- | --- | --- | --- | --- |
| O=C(Nc1cncc(-c2cnc3[nH]nc(-c4cc5c(-c6cccc(F)c6)ccnc5[nH]4)c3c2)c1)c1ccccc1 [Compound 11, N-(5-(3-(4-(3-Fluorophenyl)-1H-pyrrolo[2,3-b]pyridin-2-yl)-1H-pyrazolo [3,4-b]pyridin-5-yl)pyridin-3-yl)benzamide] | > 10 | 0.643 | 14.1 | 0.32 |  |  |
| c1cncc(-c2ccnc3[nH]c(-c4n[nH]c5ncc(-c6cncc(CN7CCCCC7)c6)cc45)cc23)c1 [Compound 99, 5-(5-(Piperidin-1-ylmethyl)pyridin-3-yl)-3-(4-(pyridin-3-yl)-1H-pyrrolo[2,3-b]pyridin-2-yl)-1H-pyrazolo[3,4-b]pyridine] | > 10 | > 10 | 37 | > 10 | 9.6 | 73.8 |
| CC(C)(C)CC(=O)Nc1cncc(-c2cnc3[nH]nc(-c4cc5c(-c6ccccc6F)ccnc5[nH]4)c3c2)c1 [Compound 72, N-(5-(3-(4-(2-Fluorophenyl)-1H-pyrrolo[2,3-b]pyridin-2-yl)-1H-pyrazolo [3,4-b]pyridin-5-yl)pyridin-3-yl)-3,3-dimethylbutanamide] | > 10 | > 10 | 38.1 | 0.759 | 14.7 |  |
| c1cnc2[nH]c(-c3n[nH]c4ncc(-c5ccncc5)cc34)cc2c1 [Compound 270, 5-(Pyridin-4-yl)-3-(1H-pyrrolo[2,3-b]pyridin-2-yl)-1H-pyrazolo[3,4-b]pyridine] | 4.65 | > 10 |  | > 10 | 23.9 | 55.6 |
| CC(C)(C)CC(=O)Nc1cncc(-c2cnc3[nH]nc(-c4cc5c(-c6ccncc6)ccnc5[nH]4)c3c2)c1 [Compound 128, 3,3-Dimethyl-N-(5-(3-(4-(pyridin-4-yl)-1H-pyrrolo[2,3-b]pyridin-2-yl)-1H-pyrazolo[3,4-b]pyridin-5-yl)pyridin-3-yl)butanamide] | > 10 | > 10 | 45.8 | > 10 | 10.7 | 0 |
| CC(C)(C)CC(=O)Nc1cncc(-c2cnc3[nH]nc(-c4cc5c(-c6ccoc6)ccnc5[nH]4)c3c2)c1 [Compound 324, N-(5-(3-(4-(Furan-3-yl)-1H-pyrrolo[2,3-b]pyridin-2-yl)-1H-pyrazolo[3,4-b]pyridin-5-yl)pyridin-3-yl)-3,3-dimethylbutanamide] | > 10 | > 10 | 28.6 | > 10 | 5.3 | 0 |
| c1ncc(-c2cnc3[nH]nc(-c4cc5c(N6CCCCC6)ccnc5[nH]4)c3c2)cn1 [Compound 195, 3-(4-(Piperidin-1-yl)-1H-pyrrolo[2,3-b]pyridin-2-yl)-5-(pyrimidin-5-yl)-1H-pyrazolo[3,4-b]pyridine] | > 10 | > 10 | 49.8 | 4.38 | 13.9 |  |
| Nc1cncc(-c2cnc3[nH]nc(-c4cc5c(-c6ccncc6)ccnc5[nH]4)c3c2)c1 [Compound 115, 5-(3-(4-(Pyridin-4-yl)-1H-pyrrolo[2,3-b]pyridin-2-yl)-1H-pyrazolo[3,4-b]pyridin-5-yl)pyridin-3-amine] | > 10 | > 10 | 40.6 | 5.9 | 0 |  |

Stronger by EC50 [1], values ahead:

| EC50 [1] [µM] | EC50 (SW480 colon cancer cells) [µM] | Compound | inhibition at 10 µM [1] [%] | EC50 [2] [µM] | inhibition at 10 µM (SW480 colon cancer cells) [%] | inhibition at 10 µM [2] [%] |
| --- | --- | --- | --- | --- | --- | --- |
| 0.094 | > 10 | CC(C)Nc1cncc(-c2cnc3[nH]nc(-c4cc5c(-c6cccnc6)ccnc5[nH]4)c3c2)c1 [Compound 96, N-Isopropyl-5-(3-(4-(pyridin-3-yl)-1H-pyrrolo[2,3-b]pyridin-2-yl)-1H-pyrazolo[3,4-b]pyridin-5-yl)pyridin-3-amine] |  | 1.56 | 14.3 |  |
| 0.007 | > 10 | CN(C)Cc1cncc(-c2cnc3[nH]nc(-c4cc5c(N6CCCCC6)ccnc5[nH]4)c3c2)c1 [Compound 181, N,N-Dimethyl-1-(5-(3-(4-(piperidin-1-yl)-1H-pyrrolo[2,3-b]pyridin-2-yl)-1H-pyrazolo[3,4-b]pyridin-5-yl)pyridin-3-yl)methanamine] |  | 0.007 | 40.9 |  |
| 2.13 | > 10 | O=C(Nc1cncc(-c2cnc3[nH]nc(-c4cc5c(-c6cccc(F)c6)ccnc5[nH]4)c3c2)c1)C1CC1 [Compound 20, N-(5-(3-(4-(3-Fluorophenyl)-1H-pyrrolo[2,3-b]pyridin-2-yl)-1H-pyrazolo [3,4-b]pyridin-5-yl)pyridin-3-yl)cyclopropanecarboxamide] |  | 2.63 | 51.4 |  |
| 1.2 | > 10 | CC(C)(C)C(=O)Nc1cncc(-c2cnc3[nH]nc(-c4cc5c(N6CCCCC6)ccnc5[nH]4)c3c2)c1 [Compound 176, N-(5-(3-(4-(Piperidin-1-yl)-1H-pyrrolo[2,3-b]pyridin-2-yl)-1H-pyrazolo[3,4-b]pyridin-5-yl)pyridin-3-yl)pivalamide] |  | > 10 | 2.9 | 22.4 |

From US10285983B2, “3-(1H-pyrrolo[2,3-B]pyridin-2-yl)-1H-pyrazolo[3,4-B] pyridines and therapeutic uses thereof” (Samumed, LLC, priority 2015, dated 2019)
